Where a SMILES comes first, the peptide text is derived from it.
Experiments:
[1] = tested on: Human embryonic kidney cells (HEK)
[2] = Procedure: Liposome permeabilization assays. Liposomes were constructed by hydration of dried lipid films with 10 mM Hepes and 30 mM calcein to a final lipid concentration of 10 mg/ml. Resulting multilamellar liposomes were extruded through a 0.1 μm polycarbonate filter at temperatures above the transition point of the particular lipid mixture. Untapped calcein was removed by gel filtration (Sephacryl S-300 HR). Permeabilization of liposomes was monitored fluorimetrically with a Perkin Elmer LS-55 luminescent spectrophotometer. Assays were performed by diluting liposomes 1:1000 into the appropriate buffer and monitoring fluorescence when excited by 484 nm light (5 nm slit width) and reading the emission intensity at 513 nm (10 nm slit widths). The percentage calcein release was calculated relative to the 100% fluorescence intensity, achieved by the addition of 0.01% Triton X-100.
[3] = tested on: Bloodstream form T. b. brucei Lister 427; test: Trypanosome killing assay, Example 2; type: cell-based, Trypanosoma brucei brucei; settings: two hours at 37° C.
Procedure: Trypanosome killing assays. Bloodstream form T. b. brucei Lister 427 (MiTat 1.2), T. b. gambiense type 1 (Eliane strain) and T. b. rhodesiense KETR12482 were used in these studies. Trypanosome killing assays were performed as described previously (Hajduk et al., 1989, J Biol Chem; 264(9):5210-5217; Shiflett et al., 2005, J Biol Chem; 280(38):32578-32585; and Widener et al., 2007, PLoS Pathog; 3(9):1250-1261). Cultured trypanosomes (except for T. b. gambiense which were incubated at 1×10^6 cells/ml) were incubated in HMI-9 media (BSF) or SM media (PCF) at a density of 1×10^7 cells/ml containing either 10% heat inactivated fetal bovine serum or bovine serum albumin and peptide or control reagents for two hours at 37° C. Killing of BSF trypanosomes was evaluated by phase-contrast microscopy. Procyclic form trypanosomes were stained with 0.1% trypan blue. Trypan blue staining was also used for some BSF assays to eliminate any possible discrepancy between the PCF and BSF assays. Trypan blue was added at the endpoint of each assay to avoid any toxic effects.

[4] = tested on: bloodstream form T. b. brucei (wild type 427); test: Trypanosome lysis assay with Hpr-SP; type: cell-based, Trypanosoma brucei brucei; settings: 8-80 μM peptide, 2 h, 37° C.
Procedure: Trypanosome lysis assays. Trypanosomes were cultured in the appropriate media and incubated at a cell density of 3×10^6 cells/ml with the addition of peptide from a 10 mg/ml stock in DMSO, or control reagents for 2 hours (h) at 37° C. Lysis of bloodstream form trypanosomes was evaluated by phase-contrast microscopy. Procyclic form trypanosomes were stained with 0.1% trypan blue. Trypan blue staining was also used for some bloodstream form assays to eliminate any possible discrepancy between the procyclic and bloodstream form assays.

BSF T. b. brucei [5] = test: Trypanosome killing assay, Example 4; type: cell-based, Trypanosoma brucei brucei; settings: two hour killing assay, 37° C.
Procedure: Trypanosome Killing Assays. Light microscopy based trypanosome killing assays were performed as previously described in detail (Harrington et al., 2010, J Biol Chem; 285(37):28659-66; Widener et al., 2007, PLoS Pathog; 3(9):1250-61; Shiflett et al., 2007, J Eukaryot Microbiol; 54(1):18-21; and Hajduk et al., 1989, J Biol Chem; 264(9):5210-7). Metacyclic T. b. brucei TREU 667 were obtained from dissection of the salivary glands of infected tsetse flies. Newly hatched Glossina morsitans morsitans (24-48 hours post eclosion) were fed defibrinated horse blood containing 2×10^6 ml^−1 trypanosomes and maintained at 25° C. in 75% relative humidity and fed maintenance blood meals three times per week. Following day 20-30, flies were harvested and salivary glands were dissected out and washed in HMI 9 media containing 10% fetal bovine serum. Metacyclic cells were collected via centrifugation and maintained in HMI 9 media with 10% fetal bovine serum at 37° C. in 5% CO2 until use. Killing assays were conducted with 1×10^4 cells/ml in HMI 9 media containing 10% fetal bovine serum. Trypanosoma vivax and T. congolense were grown from stabilites in donor ICR mouse (Harlan, United Kingdom). Parasites were harvested from mice by terminal exsanguination and passage of infected blood through a small anion exchange column. Cells were maintained in HMI 9 with 20% goat serum at 37° C. in 5% CO2 until use. Killing assays were performed with 1×10^7 cells/ml in HMI 9 media with either 20% goat serum, in the case of T. vivax and T congolense, and 10% fetal bovine serum, for T. b. brucei. Cells were incubated at 37° C. for 2 hours and dead parasites were scored visually. All were conducted in at least duplicate, and data points are the averages with standard deviations.

[6] = tested on: plasma membrane of live BSF T. b. brucei; test: Anisotropy assays with DPH and TMA-DPH, Example 4; type: cell-based, Trypanosoma brucei brucei; settings: 37° C.
Procedure: Anisotropy Assays. The plasma membrane rigidity of live T. b. brucei was determined by measuring the fluorescence depolarization of diphenyl-1,3,5-hexatriene p-toluenesulfonate (DPH) or 1-(4-trimethylammoniumphenyl)-6-diphenyl-1,3,5-hexatriene p-toluenesulfonate (TMA-DPH; Invitrogen T204). Cells were washed 3 times with and resuspended in PBS at a density of 3×10^6 cells/ml. The anisotropic probes were added to a final concentration of […] and allowed to intercalate into the cell membrane for one hour in the dark. Anisotropic values were acquired via the software function of a PerkinElmer Life Sciences LS55 spectrofluorometer. Samples were excited at 358 nm, and emission was read at 430 nm, both with 10-nm slit widths. Temperature was maintained at 37° C. by means of the PerkinElmer LS55 Biokinetics accessory. Data were corrected for light scattering with an unlabeled sample of cells, and anisotropy was calculated according to the equation r=(IVV−GIVH)/(IVV+2GIVH), where r is the anisotropy value, IVV is the emission intensity acquired with the excitation- and emission-polarizing filters set vertically, G is the instrument correction factor, and IVH is the emission intensity acquired with the excitation-polarizing filter set vertically and the emission-polarizing filter set horizontally. All assays were conducted at 37° C. […]

BSF T. b. brucei [7] = test: Trypanosome motility by video microscopy, Example 4; type: cell-based, Trypanosoma brucei brucei; settings: 40 μM peptide, 37° C.
Procedure: Trypanosome motility. All images and videos were acquired with an Axio Observer Z1 equipped with an AxioCam MRm controlled by AxioVision 4.6 software. Videos were acquired with live cells at a density of 1×10^7 cells/ml in HMI 9 media with 10% fetal bovine serum, incubated with 40 µM SHP-1 at 37° C. Videos were recorded at magnification 63× with 50-ms acquisition times. The motility of BSF trypanosomes was scored visually from video playback of trypanosomes scanned throughout 10 μl aliquots. Data is shown as the average of triplicate trials with standard deviations.

| Compound | killing of BSF T. b. brucei [3] | killing of BSF T. brucei (trypanocidal activity) (BSF T. b. brucei [5]) | other results |
| --- | --- | --- | --- |
| CC[C@H](C)[C@H](NC(=O)[C@@H](NC(=O)[C@H](C)NC(=O)CNC(=O)[C@H](CC(C)C)NC(=O)[C@H](CC(=O)O)NC(=O)[C@H](CO)NC(=O)[C@@H](N)CCSC)C(C)C)C(=O)N[C@@H](CO)C(=O)N[C@@H](CC(C)C)C(=O)N[C@@H](CC(C)C)C(=O)N[C@@H](CC(C)C)C(=O)N[C@@H](Cc1c[nH]c2ccccc12)C(=O)NCC(=O)N[C@@H](CCCNC(=N)N)C(=O)N[C@@H](CCC(N)=O)C(=O)N[C@@H](CC(C)C)C(=O)N[C@@H](Cc1ccccc1)C(=O)N[C@@H](C)C(=O)O [Hpr-SP, MSDLGAVISLLLWGRQLFA] (H-MSDLGAVISLLLWGRQLFA-OH; N-terminus and C-terminus assumed) | – | – | toxicity towards human embryonic kidney cells [1]: No toxicity was observed; permeabilization of DSPC liposomes (calcein leakage) ([2]; neutral or acidic pH): no permeabilizing activity at neutral or acidic pH; permeabilization of egg PC liposomes (calcein leakage) ([2]; robust at pH 6.8): readily permeabilized by nanomolar concentrations |
| AKLIALTLLGMGLALFRNHQS (amino acid sequence of small hydrophobic peptide -2 (SHP-2)) [Signal peptide of human paraoxonase-1 without the N-terminal methionine] | equivalent to SHP-1 | – | – |
| ERTEESWGRRFWRRGEAC (non-specific, hydrophilic peptide predicted from the N-terminus of the alternatively edited protein-1 from mitochondria of T. b. brucei) [NSP, Non-specific hydrophilic peptide predicted from the N-terminus of alternatively edited protein-1 of T. b. brucei mitochondria, reference compound] | exhibited no toxicity | – | killing (trypanolysis) of bloodstream form trypanosomes [4]: gave no trypanolysis |
| FHQIWAALLYFYGIIENSIY (derivative of SHP-3 having a leucine to glutamic acid substitution at position -5) [SHP-3ΔE] | – | does not | – |
| FHQIWAALLYFYGIIRNSIY (derivative of SHP-3 having a leucine to arginine substitution at position -5) [SHP-3ΔR] | – | confers trypanocidal activity | rigidity of the interfacial region of the plasma membrane (TMA-DPH) [6]: increased the rigidity of the interfacial region of the plasma membrane; motility phenotype (hyperactivation, constriction) (BSF T. b. brucei [7]): induce both initial hyperactivation and subsequent constriction |
| SDLGAVISLLWGRQLFA (derivative of SHP-1 having a single leucine deletion) [SHP-1-ΔL] | – | – | decrease in trypanocidal activity relative to SHP-1 [3]: five-fold |
| SDLGAVISWGRQLFA (derivative of SHP-1 having a deletion of C-terminal leucine in triplicate) [SHP-1-ΔLLL, Derivative of SHP-1 with deletion of C-terminal leucine triplicate] | complete lose of trypanosome killing activity | – | – |
| SDVISLLLWGRQLFA (derivative of SHP-1 having a deletion of the N-terminal leucine-glycine-alanine residues) [SHP-1-ΔLGA, Derivative of SHP-1 with a deletion of the N-terminal leucine-glycine-alanine residues] | complete lose of trypanosome killing activity | – | – |
| SRLGAVISLLLWGDQLFA (derivative of SHP-1 having an aspartic acid to arginine substitution at position 2 and an arginine to aspartic acid subsitution at position -5) [SHP-1-swap, SHP-1 with aspartic acid at position 2 and arginine at position −5 swapped] | – | loss of trypanocidal activity | – |

Source: patent publication US9079977B2, “Anti-trypanosomal peptides and uses thereof” (priority 2009, dated 2015)
